Like-named read-outs stand apart in the source and are kept apart here.
Columns and labels:
OCT2 [1] = biological target: T1, OCT2 (Homo sapiens, UniProt O15244); test: Inhibition of OCT2-mediated oxaliplatin uptake in transfected MDCK-II cells (protein-free HBSS); conditions: for inhibition at 30 min, 5 μM / inhibition at 30 min, 50 μM / potency estimated from few doses at 30 min: human
T1 sequence (O15244 1-555): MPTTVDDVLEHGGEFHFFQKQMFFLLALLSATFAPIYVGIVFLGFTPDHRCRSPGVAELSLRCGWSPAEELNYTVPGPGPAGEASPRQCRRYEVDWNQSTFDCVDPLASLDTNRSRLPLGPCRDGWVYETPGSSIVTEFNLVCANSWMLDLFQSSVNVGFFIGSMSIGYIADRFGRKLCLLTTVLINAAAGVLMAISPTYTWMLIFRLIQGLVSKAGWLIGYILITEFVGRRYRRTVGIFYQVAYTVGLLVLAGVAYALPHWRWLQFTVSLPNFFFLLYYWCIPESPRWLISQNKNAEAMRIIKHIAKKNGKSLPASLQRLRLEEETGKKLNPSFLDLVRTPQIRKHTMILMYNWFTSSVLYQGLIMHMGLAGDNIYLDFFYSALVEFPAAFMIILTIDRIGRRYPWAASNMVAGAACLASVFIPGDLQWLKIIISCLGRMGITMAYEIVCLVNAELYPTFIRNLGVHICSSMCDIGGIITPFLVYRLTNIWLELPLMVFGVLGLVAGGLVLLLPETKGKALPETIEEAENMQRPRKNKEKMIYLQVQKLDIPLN
From the text: Fully confluent MDCK cell monolayers were transfected with either cDNA plasmids encoding the human transporter to be tested or a GFP control. […] The cells were then washed with ice-cold PBS and lysed with 50:50 acetonitrile:H2O. Intracellular content of the substrate was quantified by LC/MS/MS or a MicroBeta radiometric plate reader.

OCT2 [2] = biological target: T1, OCT2; conditions: OCT2-mediated uptake; ASP+ 5 μM in HBSS; from Kido Y et al. J Med Chem 2011; cited from earlier work
OCT2 [3] = biological target: T1, OCT2; test: Inhibition of OCT2-mediated ASP+ uptake (Kido et al., Giacomini group)
OCT2 [4] = biological target: T1, OCT2; test: Inhibition of OCT2-mediated metformin uptake in transfected MDCK-II cells; conditions: for inhibition at 5 min, 5 μM / inhibition at 5 min, 50 μM: human
[5] = cited from earlier work; for Plasma protein binding (%): published data; for Cmax: read-out: Plasma peak total concentration Cmax, published clinical pharmacokinetic data
[6] = Published clinical pharmacokinetic data; conditions: from published Cmax and protein binding
OCT2 [7] = biological target: T1, OCT2; test: in vitro
OCT2 [8] = biological target: T1, OCT2; test: Inhibition of OCT2-mediated oxaliplatin transport in 100% human serum or HBSS containing 4% BSA (IC50,app)
[9] = human, in vivo
[10] = clinical dose; cited from earlier work
[11] = human, cell line expressing human OCT2 (cell line not given), probe ASP+ 5 μM
[12] = IC50 (μM) (substrate Oxaliplatin)
[13] = MDCK-II cells transfected with human OCT2, probe oxaliplatin 10 μM

SMILES	inhibition at 30 min, 5 μM (OCT2 [1])	inhibition at 30 min, 50 μM (OCT2 [1])	potency estimated from few doses at 30 min (OCT2 [1])	Inhibition % @ 20 μM (substrate ASP+) (OCT2 [2])	potency estimated from few doses (OCT2 [3]; [11])	IC50 (OCT2 [1])	Plasma protein binding (%) [5]	Cmax [5]	Plasma peak unbound concentration Cmax,u [6]	IC50 (OCT2 [4])	potency estimated from few doses at 30 min (OCT2 [1]; [12])	inhibition at 5 min, 5 μM (OCT2 [7])	inhibition at 5 min, 50 μM (OCT2 [7])	further results
OCC(O)COc1ccc(Cl)cc1 (stereo not shown) [Chlorphenesin]	14%	30%	118 µM	96%	0.86 µM	–	–	–	–	–	–	–	–	–
CC(C)[N+]1(C)[C@@H]2CC[C@H]1CC(OC(=O)C(CO)c1ccccc1)C2.[Br-] (stereo partly shown) [Ipratropium•Br]	–	–	–	96%	–	–	–	–	–	–	–	–	–	Inhibition % @ 5 μM (substrate Oxaliplatin) (OCT2 [1]; OCT2-mediated uptake, oxaliplatin 10 μM in HBSS, 30 min, inhibitor 5 μM): 107%; Inhibition % @ 50 μM (substrate Oxaliplatin) (OCT2 [1]; OCT2-mediated uptake, oxaliplatin 10 μM in HBSS, 30 min, inhibitor 50 μM): 104%; potency estimated from few doses (OCT2 [1]; read-out: IC50 (μM) (substrate Oxaliplatin), OCT2-mediated uptake, oxaliplatin 10 μM in protein-free HBSS, estimated from single concentration or nonlinear regression): < 0.1 µM; IC50 (OCT2 [1]; read-out: IC50 or Ki, intrinsic inhibition constant in protein free HBSS, OCT2-mediated oxaliplatin uptake): < 100 nM; potency estimated from few doses (OCT2 [3]; read-out: IC50 (μM) (substrate ASP+), estimated from the inhibition at the single concentration 20 μM): 0.81 µM; Inhibition % @ 5 μM (substrate Metformin) (OCT2 [4]; OCT2-mediated uptake, metformin 10 μM in HBSS, 5 min, inhibitor 5 μM): 94%; Inhibition % @ 50 μM (substrate Metformin) (OCT2 [4]; OCT2-mediated uptake, metformin 10 μM in HBSS, 5 min, inhibitor 50 μM): 97%; IC50 (OCT2 [4]; read-out: IC50 (μM) (substrate Metformin), OCT2-mediated uptake, metformin 10 μM in HBSS, estimated from 50 μM or regression of seven concentrations (±SEM)): 0.32 µM
NC1=NCC2c3ccccc3Cc3ccccc3N12 (stereo not shown) [Epinastine]	96%	100%	0.19 µM	97%	0.58 µM	190 nM	64.2%	120 nM	40 nM	3.9 µM	–	–	–	inhibition at 5 min, 5 μM (OCT2 [4]): 56%; inhibition at 5 min, 50 μM (OCT2 [4]): 92%
CC(C)[N+](C)(CCOC(=O)C1c2ccccc2Oc2ccccc21)C(C)C [Propantheline•Br]	–	–	–	107%	< 0.1 µM	< 100 nM	–	134 nM	–	1.7 µM	< 0.1 µM	75%	96%	inhibition at 30 min, 5 μM (OCT2 [1]; [13]): 103%; inhibition at 30 min, 50 μM (OCT2 [1]; [13]): 102%; IC50 (OCT2 [8]; IC50,app (μM), apparent inhibition constant in 100% human serum or HBSS containing 4% BSA, OCT2-mediated oxaliplatin uptake): 0.24 µM
C=C1C[C@@H]2[C@H](CC[C@]3(C)C(=O)CC[C@@H]23)[C@@]2(C)C=CC(=O)C=C12 [Exemestane]	–	–	–	100%	< 0.1 µM	190 nM	90%	91 nM	10 nM	2.6 µM	–	66%	94%	inhibition at 30 min, 5 μM (OCT2 [1]; [13]): 96%; inhibition at 30 min, 50 μM (OCT2 [1]; [13]): 102%; potency estimated from few doses at 30 min (OCT2 [1]; [13]): 0.19 µM
Cc1ccc(NC(=O)c2ccc(CN3CCN(C)CC3)cc2)cc1Nc1nccc(-c2cccnc2)n1 [Imatinib]	57%	95%	–	103%	< 0.1 µM	–	–	–	–	–	3.7 µM	–	–	fold less potent as inhibitor of OCT2-mediated metformin and oxaliplatin uptake than of ASP+ uptake (OCT2 [1]; comparison of Table 1 potencies): > 30 fold
C[N+]1(C)[C@@H]2C[C@@H](OC(=O)C(O)(c3cccs3)c3cccs3)C[C@H]1[C@@H]1O[C@@H]12 [Tiotropium•Br]	98%	102%	0.12 µM	–	–	120 nM	72%	34 nM	10 nM	1.5 µM	–	–	–	inhibition at 5 min, 5 μM (OCT2 [4]): 77%; inhibition at 5 min, 50 μM (OCT2 [4]): 95%; IC50 (OCT2 [8]): 1.1 µM
N=C(N)c1ccc(OCCCCCOc2ccc(C(=N)N)cc2)cc1 [Pentamidine]	99%	99%	–	102%	< 0.1 µM	67 nM	69%	730 nM	–	2.5 µM	0.07 µM	67%	91%	Plasma peak unbound concentration Cmax,u [9]: 230 nM; patients with nephrotoxicity at a clinical dose [10]: ~25%

— patent publication US11197862B2, “Methods of preventing toxicity of platinum drugs” (XOMICS BIOPHARMA, INC., priority 2015, dated 2021)
